Source: patent publication US6284910A, “Farnesyl pyrophosphate analogs” (University of Kentucky Research Foundation, priority 1999, dated 2001)
“Also recorded” adds a separate entry of the source.

Legend:
[1] = target: T1, recombinant rat brain FTase (Rattus norvegicus, UniProt Q02293+Q04631); experiment: Inhibition of FTase-catalyzed transfer of [^3 H]farnesyl from [^3 H]FPP to H-Ras; type: biochemical; settings: concentrations as high as 250 μM
T1 construct: 6xHis (N); made in house; host or cells: Sf9 insect cells (baculovirus)
Method: FIG. 2. Differential Inhibition of Farnesyltransferase and CAAX Geranylgeranyltransferase by AGPP. The assay mixtures contained (in a final volume of 25 μl) various components as described in "Experimental Procedures". After incubation for 15 min at 37° C., the amount of [^3 H]prenyl group transferred to the appropriate protein substrate [H-Ras (CVLS) for FTase and H-Ras (CVLL) for CAAX GGTase] was measured by precipitation with ethanol-HCl. The assays contained 10 ng recombinant rat FTase, 5 μM H-Ras, and 0.6 μM [^3 H]FPP (33,000 dpm/pmol) or 100 ng recombinant rat CAAX GGTase, 5 μM H-Ras CVLL, and 1 μM [^3 H]GGPP (33,000 dpm/pmol) and the indicated concentration of unlabeled AGPP. The 100% of control values were 1.1 and 5.5 pmol of [^3 H]farnesyl or [^3 H]geranylgeranyl transferred per tube. Each value is the average of duplicate incubations and is representative of two separate experiments.
FIG. 3. Inhibition of Farnesyltransferase by AGPP and I-AGPP. The enzymatic activity was measured in the presence of the various concentrations of either AGPP or I-AGPP as described in […]. The 100% control values were 1.9 and 2 pmol. Each value is the average of duplicate incubations and is representative of three separate experiments.
(§1) Assay for Farnesyltransferase Activity--Farnesyltransferase activity was assayed by measuring the amount of [^3 H]farnesyl or [^3 H]anilinogeranyl transferred from [^3 H]FPP or [^3 H]AGPP to recombinant p21^H-ras, as described previously (31). Unless otherwise stated, each reaction mixture contained the following components in a final volume of 25 μl: 50 mM Tris (pH 7.4), 20 mM KCl, 0.2% octyl β-glucopyranoside, 1 mM dithiothreitol, 10-20 ng recombinant FTase, 5 μM p21^Ha-ras, 3 mM MgCl2, 50 μM ZnCl2, and 0.6 μM [^3 H]FPP (33,000 dpm/pmol; American Radiochemical Co.) or 0.1-5 μM [^3 H]AGPP (37,400 dpm/pmol). Following incubation for the indicated times at 37° C., the amount of [^3 H]prenyl transferred was measured by ethanol-HCl precipitation and filtration on glass fiber filters with modification as previously described (19). A blank value was determined in parallel incubation mixtures containing no enzyme. This blank value was subtracted from each reaction before calculating pmol [^3 H]prenyl transferred.
Inhibition of Farnesyltransferase by AGPP--AGPP was tested for its ability to inhibit recombinant rat brain FTase activity in vitro. AGPP inhibited FTase in a concentration dependent manner with an IC50 value of 0.6 μM (FIG. 2).
Kinetic analyses were carried out to investigate the mechanism of FTase inhibition by AGPP. […] The same Km value was observed when the Lineweaver-Burke plot was analyzed under different Ras and AGPP concentrations in the presence of a constant concentration of FPP. […] AGPP inhibition is reversible, since transfer of [^3 H]-FPP by FTase to Ras was restored by isolating the farnesyltransferase by gel filtration chromatography after preincubation in the presence of 50 μM AGPP (data not shown).
The assays contained 10 ng recombinant rat FTase, 5 μM H-Ras, and 0.6 μM [^3 H]FPP (33,000 dpm/pmol) or 100 ng recombinant rat CAAX GGTase, 5 μM H-Ras CVLL, and 1 μM [^3 H]GGPP (33,000 dpm/pmol) and the indicated concentration of unlabeled AGPP. The 100% of control values were 1.1 and 5.5 pmol of [^3 H]farnesyl or [^3 H]geranylgeranyl transferred per tube.

[2] = target: T2, FTase (Rattus norvegicus, UniProt Q02293+Q04631); experiment: Inhibition of FTase-catalyzed transfer of [^3 H]AGPP to p21^H-ras; type: biochemical; parameters: H-Ras is only the protein substrate; settings: non-radiolabeled compound, time and concentration dependent transfer
Method: as §1
(§2) The observed inhibition kinetics could be a manifestation of the ability of AGPP to act as an alternative substrate for FTase. To evaluate the potential of AGPP to serve as a substrate of FTase, [^3 H]-AGPP was prepared by a similar route as described above, incorporating tritium with a specific activity of 17 Ci/mmol (synthesis to be reported elsewhere). […] The incorporated radioactivity was detected as a band of the expected molecular weight of farnesylated p21^H-ras on SDS-polyacrylamide gels (FIG. 4A, inset). […] The concentration of [^3 H]AGPP that gave half-maximal reaction velocity was approximately 0.5 μM (FIG. 4B).

[3] = target: T2, FTase; experiment: FTase-catalyzed transfer of labeled FPP analogs to p21^H-ras (substrate assay); type: biochemical; parameters: H-Ras is only the protein substrate; settings: in vitro, 37° C.
Method: FIG. 4. Transfer of Anilinogeranyl from [^3 H]AGPP to p21^Ha-ras by Farnesyltransferase. (A) Each reaction contained 1 μM [^3 H]AGPP (37,400 dpm/pmol) and 10 ng of recombinant FTase in the absence (triangles) or presence (circles) of 5 μM p21^Ha-ras Duplicate samples were incubated for the indicated times at 37° C., and ethanol-HCl precipitated radioactivity was measures as described under "Experimental Procedures". […] The gel was treated with Amplify solution (Amersham), dried, and exposed to Kodak X-OMAT AR film for 2 days at -70° C. The migration of molecular weight markers placed in a adjacent lane is shown. (B) The AGPP substrate saturation curve for FTase was determined by varying the amount of [^3 H]AGPP in the standard reaction described above. Assays were carried out in duplicate for 30 min at 37° C., and the ethanol-HCl precipitable radioactivity measured. The data is representative of three independent experiments.
FIG. 5. […] Farnesyltransferase (10 ng) was incubated in a final volume of 25 μl in the presence of 1.0 μM [^3 H]AGPP or [^3 H]FPP and 5 μM wild-type p21^Ha-ras. After incubation for 30 min at 37° C., the amount of [^3 H]prenyl transferred to p21^Ha-ras was determined as described under "Experimental Procedures". Each value is the average of duplicate incubations and is representative of five separate experiments.
as §1, §2
FIG. 5 depicts transfer of unnatural anilinogeranyl lipid from [^3 H]AGPP and transfer of farnesyl lipid from [^3 H]FPP to H-Ras by FTase. Farnesyltransferase (10 ng) was incubated in a final volume of 25 μl in the presence of 1.0 μM [^3 H]AGPP or [^3 H]FPP and 5 μM wild-type H-Ras. After incubation for 30 min. at 37° C., the amount of [^3 H]prenyl transferred to H-Ras was determined by ethanol-HCl precipitation and scintillation counting. Each value is the average of duplicate incubations and is representative of five separate experiments.

[4] = target: T2, FTase; experiment: Continuous fluorescence assay: transfer of FPP and analogs to N-dansyl-GCVLS by FTase; type: biochemical; settings: excitation 340 nm, 505 nm
Excerpt: FIG. 8. Progress Curves for Transfer of FPP and Analog Pyrophosphates to Dansyl-GCVLS by FTase. The reaction is monitored for fluorescence intensity at 505 nm with excitation at 340 nm. (a) FPP, (b) AGPP, (c) 8-(pentafluoroaniline)geranyl pyrophosphate, (d) blank.
Continuous Fluorescence Assay for Analog Transfer: An important requirement for these studies is the development of a rapid technique for evaluating whether FPP analogs that are efficiently and appropriately transferred to target substrates by FTase. The analogs were evaluated for their ability to be transferred by FTase to the pentapeptide N-dansyl-GCVLS in a continuous fluorescence assay. (See references 78, 79, infra). There is a time dependent increase in the fluorescence of the dansyl group due to the local increase in hydrophobicity as the adjacent cysteine residue is isoprenylated. […] (FIG. 8).

[5] = tested on: Xenopus laevis oocytes; experiment: Xenopus laevis oocyte maturation assay (GVBD) with oncogenic H-Ras in mevinolin-treated oocytes; type: cell-based; settings: 50 μM mevinolin, overnight
Excerpt: Recently, a novel methodology involving the microinjection of known amounts of Ras into Xenopus oocytes has been described (see references 24, 45, infra), thereby permitting a quantitative structure-function analysis of H-Ras farnesyl-group for signal transduction in vivo. The approach makes use of enzymatic methods to attach structurally related farnesyl analogs onto the prenylation site of H-Ras combined with microinjection procedures to study their in vivo function. Oocytes are naturally arrested at the G2-M boundary of the first meiotic cell division. (See reference 80, infra). When microinjected with oncogenic H-Ras, oocytes reenter the cell cycle, which is monitored by germinal vesicle breakdown (GVBD) by the appearance of a white spot in the animal hemisphere. GVBD is accompanied by activation of the mitogen-activated protein kinase (MAPK) cascade. (See 81, 82, infra). […] (See references 24, 45, infra). These biochemical effects are strictly dependent on in vivo farnesylation of the injected H-Ras protein since mutation of the CaaX prenylation motif, blocking isoprenoid biosynthesis, and inhibition of FTase in oocytes all suppress these activities. (See references 83-85, infra). Thus, the system provides a method to study the in vivo role of prenylation by analyzing the ability of FPP analogues to rescue H-Ras biological functions in isoprenoid-depleted oocytes. […] Oocytes were isolated from X. laevis females and allowed to recover overnight. (See 24, 45, infra).

With `C/C(=C\CO)CC/C=C(\C)CNc1ccccc1` [AG-OH, (E,E)-8-Aniline-3,7-dimethyl-2,6-octadien-1-ol] the “inhibition of FTase by anilinogeranyl alcohol, in words” value [1] was “did not significantly inhibit” and the “inhibition of transfer of [^3 H]AGPP to p21^H-ras, in words” value [2] was “not AG-OH or farnesol were found to inhibit”.

In the case of `C/C(=C\COP(=O)(O)OP(=O)(O)O)CC/C=C(\C)CNc1ccc(I)cc1` [I-AGPP, 8-(4-iodoaniline)-3,7-dimethyl-2,6-octadiene pyrophosphate], the “transfer to p21^H-ras by FTase, in words” value [3] is reported as “efficient transfer of I-AGPP by FTase to H-Ras” and the “transfer to p21^H-ras by FTase, in words” value ([3]; listed as 125 I-AGPP) is reported as “time and substrate dependent manner similar to [^3 H]AGPP”.

In the case of `C/C(=C\COP(=O)(O)OP(=O)(O)O)CC/C=C(\C)CNc1ccc([N+](=O)[O-])cc1` [analog 2, 8-(4-nitroaniline)-3,7-dimethyl-2,6-octadiene pyrophosphate], the “time-dependent increase in dansyl fluorescence / transfer to dansyl peptide, in words” value [4] is reported as “Time-dependent increases in the fluorescence of the dansyl group”.

For `C/C(=C\COP(=O)(O)OP(=O)(O)O)CC/C=C(\C)CNc1c(F)c(F)c(F)c(F)c1F` [analog 4, 8-pentafluoroaniline-3,7-dimethyl-2,6-octadiene pyrophosphate], the “time-dependent increase in dansyl fluorescence / transfer to dansyl peptide, in words” value [4] was “Time-dependent increases in the fluorescence of the dansyl group; also recorded: does not change the apparent kinetics of transfer”.

With `C/C(=C\COP(=O)(O)OP(=O)(O)O)CC/C=C(\C)CNc1c(F)c(F)c(N=[N+]=[N-])c(F)c1F` [analog 5, 8-(4-azido-2,3,5,6-tetrafluoroaniline)-3,7-dimethyl-2,6-octadiene pyrophosphate] the “time-dependent increase in dansyl fluorescence / transfer to dansyl peptide, in words” value [4] was “no increase in fluorescence, and are not transferred”.

For `CCN(C/C(C)=C/CC/C(C)=C/COP(=O)(O)OP(=O)(O)O)c1c(F)c(F)c(N=[N+]=[N-])c(F)c1F` [analog 6, 8-(N-ethyl-4-azido-2,3,5,6-tetrafluoroaniline)-3,7-dimethyl-2,6-octadiene pyrophosphate], the “time-dependent increase in dansyl fluorescence / transfer to dansyl peptide, in words” value [4] was “no increase in fluorescence, and are not transferred”.

`C/C(=C\COP(=O)(O)OP(=O)(O)O)CCCOCc1ccccc1` [analog 12, 6-benzyloxy-3-methyl-2-hexene pyrophosphate] was tested, and the “time-dependent increase in dansyl fluorescence / transfer to dansyl peptide, in words” value [4] was “transferred to dansyl peptide by FTase with slow kinetics; also recorded: Time-dependent increases in the fluorescence of the dansyl group”.

For `CC(C)=CCCC(C)=CCCC(C)=CCO` [farnesol, reference compound], the “inhibition of transfer of [^3 H]AGPP to p21^H-ras, in words” value [2] was “not AG-OH or farnesol were found to inhibit”.

`CC[C@H](C)C(=O)O[C@H]1C[C@@H](C)C=C2C=C[C@H](C)[C@H](CC[C@@H]3C[C@@H](O)CC(=O)O3)[C@H]21` [mevinolin, reference compound] was tested, and the “depletion of endogenous FPP pool” value [5] was “effectively depletes the endogenous pool of FPP”.
